Reference: US7811797B2, “α-isomaltosylglucosaccharide-forming enzyme, process and uses of the same” (Kabushiki Kaisha Hayashibara Seibutsu Kagaku Kenkyujo, priority 2000, dated 2010)
Where two headings read alike, the source gives them in different places.

Key:
[1] = tested on: Bacteroides vulgatus JCM 5826; assay: Assimilation test, Bacteroides vulgatus; type: cell-based; details: PYF medium with 0.5% saccharide, 37° C., four days, anaerobic
[2] = tested on: internal content of rat cecum; assay: Fermentation test by internal content of rat cecum; type: in vitro ADME
Method: The internal content of rat cecum was collected by anesthetizing a Wister male rat with ether, allowing the rat to die, collecting the internal content under anaerobic conditions, and suspending the resultant with 4-fold volumes of a 0.1 M aqueous solution of sodium bicarbonate. Cyclotetrasaccharide was added in an amount of about 7% by weight to the internal content of rat cecum, and the contents of cyclotetrasaccharide still remained just after and 12 hours after the addition of the internal content was quantified on gas chromatography. As a result, the contents of cyclotetrasaccharide of the former and latter were respectively 68.0 mg and 63.0 mg per one gram of the internal content of rat cecum.

mice = assay: Acute toxicity test, oral administration; type: in vivo
Text: Based on this, the LD50 of cyclotetrasaccharide was at least 50 g/kg mouse body weight, though the data were not so accurate.

Amylopsin [3] = molecular target: T1, Amylopsin (Homo sapiens, UniProt P04746)
T1 sequence (P04746 16-511): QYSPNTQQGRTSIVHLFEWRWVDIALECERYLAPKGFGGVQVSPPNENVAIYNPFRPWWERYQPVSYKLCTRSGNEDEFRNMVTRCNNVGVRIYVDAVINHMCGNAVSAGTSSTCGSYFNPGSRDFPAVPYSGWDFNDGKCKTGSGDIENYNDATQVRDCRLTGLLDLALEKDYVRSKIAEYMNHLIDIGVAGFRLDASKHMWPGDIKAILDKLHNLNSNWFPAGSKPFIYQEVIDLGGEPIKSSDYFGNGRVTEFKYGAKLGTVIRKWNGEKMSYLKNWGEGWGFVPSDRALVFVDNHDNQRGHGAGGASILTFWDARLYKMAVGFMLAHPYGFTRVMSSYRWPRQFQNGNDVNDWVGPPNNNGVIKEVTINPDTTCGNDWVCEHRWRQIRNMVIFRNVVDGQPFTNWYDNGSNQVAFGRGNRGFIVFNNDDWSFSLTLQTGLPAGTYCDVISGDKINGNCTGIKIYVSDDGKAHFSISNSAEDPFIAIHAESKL

[4] = pH stability of cyclotetrasaccharide solution; type: physicochemical; details: 4% (w/v), 100° C. for 24 hours; for Purity (%) after heating: HPLC
Method: Eight milliliters of each solution was placed in a glass test tube, followed by sealing the test tube and heating the solution at 100° C. for 24 hours. After cooling, each solution was measured for coloration degree and determined for purity on HPLC. The coloration degree was evaluated based on the absorbance in a cell with a 1-cm light pass at a wavelength of 480 nm.

[5] = Amino carbonyl reaction with glycine; type: physicochemical; details: 10% (w/v) with 1% (w/v) glycine, pH 7.0, 100° C.
Method: Four milliliters of the resulting solution were placed in a glass test tube, sealed, and heated at 100° C. for 30 to 90 min. After allowing to stand for cooling at ambient temperature, each of the resulting solutions was measured for coloration degree to examine on their amino carbonyl reactivity. The coloration degree was evaluated based on the absorbance in a cell with 1-cm light pass at a wavelength of 480 nm.

[6] = tested on: Bifidobacterium adolescentis JCM 1275; assay: Assimilation test, Bifidobacterium adolescentis; type: cell-based; details: PYF medium with 0.5% saccharide, 37° C., four days, anaerobic
Amylopsin [7] = molecular target: T1, Amylopsin; assay: Digestion test in vitro, amylopsin
[8] = tested on: α-isomaltosylglucosaccharide-forming enzyme; assay: Action on saccharides (substrates), Enzyme of Strain A19; type: biochemical, Arthrobacter globiformis A19; parameters: key: −: it showed no change; +: it showed a slight reduction of the color spot of the substrate and the formation of other reaction product; ++: it showed a high reduction of the color spot of the substrate and the formation of other reaction product; +++: it showed a substantial disappearance of the substrate spot and the formation of other reaction product; details: two units/g substrate, substrate 2% (w/v), 30° C., pH 8.4, 24 hours, TLC
Procedure, shortened: (§1)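 Purified enzyme from each strain was added at 2 units/g substrate to each of 24 saccharides at 2% (w/v). Incubation ran 24 h at 30° C, pH 6.0, or pH 8.4 for the A19 enzyme. TLC compared reaction mixtures before and after incubation to show whether each substrate was acted on.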

[9] = tested on: α-isomaltosylglucosaccharide-forming enzyme; assay: Action on saccharides (substrates), Enzyme of Strain C11; type: biochemical, Bacillus globisporus C11; parameters: key: −: it showed no change; +: it showed a slight reduction of the color spot of the substrate and the formation of other reaction product; ++: it showed a high reduction of the color spot of the substrate and the formation of other reaction product; +++: it showed a substantial disappearance of the substrate spot and the formation of other reaction product; details: two units/g substrate, substrate 2% (w/v), 30° C., pH 6.0, 24 hours, TLC
Procedure, shortened: as §1

[10] = tested on: Small intestinal mucosal enzyme; assay: Digestion test in vitro, small intestinal mucosal enzyme
[11] = Digestion test in vitro, synthetic gastric juice

OCC1OC2OCC3O[C@H](O[C@H]4C(O)C(CO)OC(OCC5O[C@H](O[C@@H](C1O)C2O)C(O)C(O)[C@@H]5O)C4O)C(O)C(O)[C@@H]3O (stereo partly drawn) [Cyclotetrasaccharide, cyclo{→6)-α-D-glucopyranosyl-(1→3)-α-D-glucopyranosyl-(1→6)-α-D-glucopyranosyl-(1→3)-α-D-glucopyransoyl-(1→}]
Assimilability [1]: − (judged negative (−) when the post culture had a pH of 6.0 or higher) | content of cyclotetrasaccharide remained ([2]; 12 hours after the addition): 63.0 mg per one gram of the internal content of rat cecum | content of cyclotetrasaccharide remained ([2]; just after the addition, about 7% by weight added): 68.0 mg per one gram of the internal content of rat cecum | death of mice (mice; highest possible dose): did not induce death of mice | LD50 (mice; mice, data not so accurate): at least 50 g/kg mouse body weight | Decomposition percentage (%) by digestive enzyme (Amylopsin [3]): 0.0% | Coloration degree (A480 nm) ([4]; pH 2.0 (Acetate buffer)): 0.00 A480 nm | Purity (%) after heating ([4]; pH 2.0 (Acetate buffer)): 93% | Coloration degree (A480 nm) ([4]; pH 3.0 (Acetate buffer)): 0.00 A480 nm | Purity (%) after heating ([4]; pH 3.0 (Acetate buffer)): 100% | Coloration degree (A480 nm) ([4]; pH 4.0 (Acetate buffer)): 0.00 A480 nm | Purity (%) after heating ([4]; pH 4.0 (Acetate buffer)): 100% | Coloration degree (A480 nm) ([4]; pH 5.0 (Acetate buffer)): 0.00 A480 nm | Purity (%) after heating ([4]; pH 5.0 (Acetate buffer)): 100% | Coloration degree (A480 nm) ([4]; pH 6.0 (Tris-HCl buffer)): 0.00 A480 nm | Purity (%) after heating ([4]; pH 6.0 (Tris-HCl buffer)): 100% | Coloration degree (A480 nm) ([4]; pH 7.0 (Tris-HCl buffer)): 0.00 A480 nm | Purity (%) after heating ([4]; pH 7.0 (Tris-HCl buffer)): 100% | Coloration degree (A480 nm) ([4]; pH 8.0 (Tris-HCl buffer)): 0.00 A480 nm | Purity (%) after heating ([4]; pH 8.0 (Tris-HCl buffer)): 100% | Coloration degree (A480 nm) ([4]; pH 9.0 (Ammonium buffer)): 0.00 A480 nm | Purity (%) after heating ([4]; pH 9.0 (Ammonium buffer)): 100% | Coloration degree (A480 nm) ([4]; pH 10.0 (Ammonium buffer)): 0.00 A480 nm | Purity (%) after heating ([4]; pH 10.0 (Ammonium buffer)): 100% | Coloration degree (A480 nm) ([5]; heating time 0 min): 0.00 A480 nm | Coloration degree (A480 nm) ([5]; heating time 30 min): 0.00 A480 nm | Coloration degree (A480 nm) ([5]; heating time 60 min): 0.00 A480 nm | Coloration degree (A480 nm) ([5]; heating time 90 min): 0.00 A480 nm | Assimilability [6]: − (judged negative (−) when the post culture had a pH of 6.0 or higher)

OC[C@@H](O)[C@@H](O[C@H]1O[C@H](CO)[C@@H](O)[C@H](O)[C@H]1O)[C@H](O)[C@@H](O)CO [Maltitol, reference compound]
Decomposition percentage (%) by digestive enzyme (Amylopsin [7]): 0.0% | Enzymatic action, Enzyme of Strain A19 [8]: − | Enzymatic action, Enzyme of Strain C11 [9]: − | Decomposition percentage (%) by digestive enzyme [10]: 4.0% | Decomposition percentage (%) by digestive enzyme [11]: 0.0%
